For 37 compounds, Ki results are on record in patent publication US20090215857A1 (Pfizer Products Inc., priority 2005, published 2009).

Each structure is given as a SMILES string.

Assay [1] has as its target T1, human serotonin transporter (Homo sapiens, UniProt P31645).
T1 construct: expressed in transfected cells; host or cells: HEK-293
Kind of assay: hSERT receptor binding ([125I]-RTI-55 radioligand). The settings on record: membranes of HEK-293 cells transfected with human serotonin transporter cDNA; 50 pM [125I]-RTI-55; IC50 converted by Cheng-Prusoff; read-out: SERT Ki. An outline of the steps:
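Ki values derive via Cheng-Prusoff from IC50s of displacement of 50 pM [125I]-RTI-55 binding to transfected HEK-293 membranes, 90 min at room temperature in pH 7.4 Krebs-HEPES buffer. Compounds spanned 10^−12 to 10^−5 M, in duplicate; nonspecific binding was set with 10 μM citalopram.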

The target in assay [2] is T2, human norepinephrine transporter (Homo sapiens, UniProt P23975).
T2 construct: expressed in transfected cells; host or cells: HEK-293
Kind of assay: hNET receptor binding ([125I]-RTI-55 radioligand). The settings on record: membranes of HEK-293 cells transfected with human norepinephrine transporter cDNA; 50 pM [125I]-RTI-55; IC50 converted by Cheng-Prusoff; read-out: NET Ki. An outline of the steps:
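Membranes from HEK-293 cells expressing human NET were incubated 90 min at room temperature with 50 pM [125I]-RTI-55 and test compound (10^−5M to 10^−12M) in Krebs-HEPES, pH 7.4.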

T1 sequence (P31645 whole entry): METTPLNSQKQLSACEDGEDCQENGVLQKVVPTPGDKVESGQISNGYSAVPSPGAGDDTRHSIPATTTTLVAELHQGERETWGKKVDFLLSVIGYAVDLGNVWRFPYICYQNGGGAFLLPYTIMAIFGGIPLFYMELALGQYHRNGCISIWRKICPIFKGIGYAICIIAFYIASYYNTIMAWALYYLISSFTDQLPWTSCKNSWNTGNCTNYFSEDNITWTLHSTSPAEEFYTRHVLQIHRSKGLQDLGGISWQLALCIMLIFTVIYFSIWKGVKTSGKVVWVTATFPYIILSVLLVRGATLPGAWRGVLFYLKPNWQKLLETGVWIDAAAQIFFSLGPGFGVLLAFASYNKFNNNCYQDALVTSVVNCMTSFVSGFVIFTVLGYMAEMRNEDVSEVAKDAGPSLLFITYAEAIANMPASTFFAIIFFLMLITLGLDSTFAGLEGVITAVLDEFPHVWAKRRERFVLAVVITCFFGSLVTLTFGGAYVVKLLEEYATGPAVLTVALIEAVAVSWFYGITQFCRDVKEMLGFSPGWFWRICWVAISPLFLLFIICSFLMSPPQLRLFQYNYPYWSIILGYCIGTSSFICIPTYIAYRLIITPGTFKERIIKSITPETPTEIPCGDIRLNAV
T2 sequence (P23975 whole entry): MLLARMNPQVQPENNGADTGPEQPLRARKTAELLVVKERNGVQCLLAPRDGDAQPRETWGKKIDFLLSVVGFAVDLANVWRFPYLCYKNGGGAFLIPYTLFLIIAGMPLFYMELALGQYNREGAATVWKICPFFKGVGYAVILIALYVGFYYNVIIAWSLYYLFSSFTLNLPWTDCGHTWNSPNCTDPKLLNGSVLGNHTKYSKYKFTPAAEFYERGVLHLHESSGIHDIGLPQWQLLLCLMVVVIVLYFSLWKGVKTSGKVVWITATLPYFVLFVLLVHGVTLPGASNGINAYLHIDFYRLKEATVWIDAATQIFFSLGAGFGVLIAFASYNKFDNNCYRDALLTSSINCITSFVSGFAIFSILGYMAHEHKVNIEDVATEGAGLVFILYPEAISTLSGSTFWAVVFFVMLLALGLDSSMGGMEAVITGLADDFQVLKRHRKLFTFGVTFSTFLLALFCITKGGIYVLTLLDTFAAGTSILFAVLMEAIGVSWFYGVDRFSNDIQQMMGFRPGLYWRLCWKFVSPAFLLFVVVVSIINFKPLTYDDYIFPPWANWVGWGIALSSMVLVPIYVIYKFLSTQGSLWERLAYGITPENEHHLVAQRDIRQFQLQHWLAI

Take `Fc1ccc(-c2ccccc2)c(CO[C@H]2CCNC2)c1` [Example D-66, (S)-3-(4-Fluoro-biphenyl-2-ylmethoxy)-pyrrolidine]: the Ki (in general, the equilibrium dissociation constant of an inhibitor or competing ligand from its target) in assay [1] stood at 126 nM; in assay [2], 65.9 nM.
The matching figures for `Cc1cc(C)cc(-c2ccc(F)cc2CO[C@H]2CCNC2)c1` [Example D-67, (S)-3-(4-Fluoro-3′,5′-dimethyl-biphenyl-2-ylmethoxy)-pyrrolidine]: 116 nM and 377 nM.
For `COc1ccc(OC)c(-c2ccc(F)cc2CO[C@H]2CCNC2)c1` [Example D-68, (S)-3-(4-Fluoro-2′,5′-dimethoxy-biphenyl-2-ylmethoxy)-pyrrolidine], the Ki in assay [1] worked out at 1240 nM; in assay [2] it was 1160 nM.
The matching figures for `Cc1cccc(-c2ccc(F)cc2CO[C@H]2CCNC2)c1` [Example D-69, (S)-3-(4-Fluoro-3′-methyl-biphenyl-2-ylmethoxy)-pyrrolidine]: 85.8 nM and 90.4 nM.
In the case of `CCOc1cccc(-c2ccc(F)cc2CO[C@H]2CCNC2)c1` [Example D-70, (S)-3-(3′-Ethoxy-4-fluoro-biphenyl-2-ylmethoxy)-pyrrolidine], the Ki was 195 nM in assay [1] and 832 nM in assay [2].
For `Fc1ccc(-c2ccc(F)c(F)c2)c(CO[C@H]2CCNC2)c1` [Example D-71, (S)-(4,3′,4′-Trifluoro-biphenyl-2-ylmethoxy)-pyrrolidine], the Ki was 108 nM in assay [1] and 60 nM in assay [2].
As for `COc1ccccc1-c1ccc(F)cc1CO[C@H]1CCNC1` [Example D-72, (S)-3-(4-Fluoro-2′-methoxy-biphenyl-2-ylmethoxy)-pyrrolidine], the Ki in assay [1] stood at 356 nM; in assay [2] it was 205 nM.
The matching figures for `Fc1ccc(-c2ccc(F)c(Cl)c2)c(CO[C@H]2CCNC2)c1` [Example D-73, (S)-3-(3′-Chloro-4,4′-difluoro-biphenyl-2-ylmethoxy)-pyrrolidine]: 49.7 nM and 146 nM.
On to `Fc1ccc(-c2ccc(F)cc2CO[C@H]2CCNC2)cc1` [Example D-74, (S)-3-(4,4′-Difluoro-biphenyl-2-ylmethoxy)-pyrrolidine], for which the Ki in assay [1] amounted to 146 nM; in assay [2], 43.4 nM.
Consider `Fc1ccc(-c2cccc(C(F)(F)F)c2)c(CO[C@H]2CCNC2)c1` [Example D-75, (S)-3-(4-Fluoro-3′-trifluoromethyl-biphenyl-2-ylmethoxy)-pyrrolidine], for which the results for the inhibitory constant (Ki) in assay [1] and in assay [2] were 106 nM and 598 nM, respectively.
On the same counts, the results for `CCc1ccc(-c2ccc(F)cc2CO[C@H]2CCNC2)cc1` [Example D-76, (S)-3-(4′-Ethyl-4-fluoro-biphenyl-2-ylmethoxy)-pyrrolidine] are 734 nM and 1280 nM.
As to `COc1ccc(-c2ccc(F)cc2CO[C@H]2CCNC2)c(OC)c1` [Example D-77, (S)-3-(4-Fluoro-2′,4′-dimethoxy-biphenyl-2-ylmethoxy)-pyrrolidine], the Ki in assay [1] amounted to 1400 nM; in assay [2], 1350 nM.
For `CC(=O)c1ccc(-c2ccc(F)cc2CO[C@H]2CCNC2)cc1` [Example D-78, (S)-1-[4′-Fluoro-2′-(pyrrolidin-3-yloxymethyl)-biphenyl-4-yl]-ethanone], the inhibitory constant (Ki) amounted to 444 nM in assay [1] and 6870 nM in assay [2].
As to `Fc1ccc(-c2ccc(C(F)(F)F)cc2)c(CO[C@H]2CCNC2)c1` [Example D-79, (S)-3-(4-Fluoro-4′-trifluoromethyl-biphenyl-2-ylmethoxy)-pyrrolidine], the Ki was found to be 206 nM in assay [1] and 6780 nM in assay [2].
Consider `Fc1cccc(-c2ccc(F)cc2CO[C@H]2CCNC2)c1` [Example D-80, (S)-3-(4,3′-Difluoro-biphenyl-2-ylmethoxy)-pyrrolidine], for which the figures for the Ki in assay [1] and in assay [2] were 44.7 nM and 36 nM, respectively.
With `CC(=O)c1cccc(-c2ccc(F)cc2CO[C@H]2CCNC2)c1` [Example D-81, (S)-1-[4′-Fluoro-2′-(pyrrolidin-3-yloxymethyl)-biphenyl-3-yl]-ethanone], the Ki in assay [1] turned out to be 371 nM; in assay [2], 1970 nM.
On to `Cc1cccc(-c2ccc(F)cc2CO[C@H]2CCNC2)c1C` [Example D-82, (S)-3-(4-Fluoro-2′,3′-dimethyl-biphenyl-2-ylmethoxy)-pyrrolidine], for which the Ki in assay [1] came to 77.1 nM; in assay [2], 258 nM.
The matching figures for `Fc1ccc(-c2ccc(Cl)c(Cl)c2)c(CO[C@H]2CCNC2)c1` [Example D-83, (S)-3-(3′,4′-Dichloro-4-fluoro-biphenyl-2-ylmethoxy)-pyrrolidine]: 71.6 nM and 109 nM.
The matching figures for `COc1ccc(-c2ccc(F)cc2CO[C@H]2CCNC2)cc1OC` [Example D-84, (S)-3-(4-Fluoro-3′,4′-dimethoxy-biphenyl-2-ylmethoxy)-pyrrolidine]: 70.4 nM and 1920 nM.
On the same counts, the results for `CCOc1ccc(-c2ccc(F)cc2CO[C@H]2CCNC2)cc1` [Example D-85, (S)-3-(4′-Ethoxy-4-fluoro-biphenyl-2-ylmethoxy)-pyrrolidine] are 324 nM and 706 nM.
`Fc1cc(F)cc(-c2ccc(F)cc2CO[C@H]2CCNC2)c1` [Example D-86, (S)-(4,3′,5′-Trifluoro-biphenyl-2-ylmethoxy)-pyrrolidine]: the Ki stood at 76.2 nM in assay [1] and 278 nM in assay [2].
`OCc1cccc(-c2ccc(F)cc2CO[C@H]2CCNC2)c1` [Example D-87, (S)-[4′-Fluoro-2′-(pyrrolidin-3-yloxymethyl)-biphenyl-3-yl]-methanol]: the results for the Ki in assay [1] and in assay [2] were 124 nM and 3080 nM, respectively.
As to `CC(C)OC(=O)c1ccc(-c2ccc(F)cc2CO[C@H]2CCNC2)cc1` [Example D-88, (S)-4′-Fluoro-2′-(pyrrolidine-3-yloxymethyl)-biphenyl-4-carboxylic acid isopropyl ester], the values for the Ki in assay [1] and in assay [2] were 1040 nM and 1030 nM, respectively.
The matching figures for `Cc1ccc(C)c(-c2ccc(F)cc2CO[C@H]2CCNC2)c1` [Example D-89, (S)-3-(4-Fluoro-2′,5′-dimethyl-biphenyl-2-ylmethoxy)-pyrrolidine]: 268 nM and 189 nM.
In the case of `Oc1cccc(-c2ccc(F)cc2CO[C@H]2CCNC2)c1` [Example D-90, (S)-4′-Fluoro-2′-(pyrrolidin-3-yloxymethyl)-biphenyl-3-ol], the Ki was 516 nM in assay [1] and 68.3 nM in assay [2].
Take `Fc1ccc(-c2ccc(OC(F)(F)F)cc2)c(CO[C@H]2CCNC2)c1` [Example D-91, (S)-3-(4-Fluoro-4′-trifluoromethoxy-biphenyl-2-ylmethoxy)-pyrrolidine]: the Ki amounted to 16.5 nM in assay [1] and 935 nM in assay [2].
As for `COc1c(C)cc(-c2ccc(F)cc2CO[C@H]2CCNC2)cc1C` [Example D-92, (S)-3-(4-Fluoro-4′-methoxy-3′,5′-dimethyl-biphenyl-2-ylmethoxy)-pyrrolidine], the results for the inhibition constant (Ki) in assay [1] and in assay [2] were 144 nM and 738 nM, respectively.
Regarding `COc1cccc(-c2ccc(F)cc2CO[C@H]2CCNC2)c1F` [Example D-93, (S)-3-(4,2′-Difluoro-3′-methoxy-biphenyl-2-ylmethoxy)-pyrrolidine], the results for the inhibitory constant (Ki) in assay [1] and in assay [2] were 1450 nM and 1120 nM, respectively.
The matching figures for `Cc1cc(-c2ccc(F)cc2CO[C@H]2CCNC2)ccc1F` [Example D-94, (S)-3-(4,4′-Difluoro-3′-methyl-biphenyl-2-ylmethoxy)-pyrrolidine]: 88.4 nM and 102 nM.
For `Fc1ccc(-c2cccc(OC(F)(F)F)c2)c(CO[C@H]2CCNC2)c1` [Example D-95, (S)-3-(4-Fluoro-3′-trifluoromethoxy-biphenyl-2-ylmethoxy)-pyrrolidine], the Ki in assay [1] amounted to 122 nM; in assay [2], 331 nM.
On the same counts, the results for `Fc1ccc(-c2ccccc2OCc2ccccc2)c(CO[C@H]2CCNC2)c1` [Example D-97, (S)-3-(2′-Benzyloxy-4-fluoro-biphenyl-2-ylmethoxy)-pyrrolidine] are 286 nM and 148 nM.
Turning to `COc1ccc(-c2ccc(F)cc2CO[C@H]2CCNC2)cc1C` [Example D-98, (S)-3-(4-Fluoro-4′-methoxy-3′-methyl-biphenyl-2-ylmethoxy)-pyrrolidine], the Ki came to 292 nM in assay [1] and 187 nM in assay [2].
The matching figures for `Oc1ccc(-c2ccc(F)cc2CO[C@H]2CCNC2)cc1` [Example D-99, (S)-4′-Fluoro-2′-(pyrrolidine-3-yloxymethyl)-biphenyl-4-ol]: 659 nM and 43.1 nM.
The matching figures for `COc1ccc(-c2ccc(F)cc2CO[C@H]2CCNC2)cc1F` [Example D-100, (S)-3-(4,3′-Difluoro-4′-methoxy-biphenyl-2-ylmethoxy)-pyrrolidine]: 486 nM and 404 nM.
Consider `Fc1ccc(-c2ccccc2-c2ccccc2)c(CO[C@H]2CCNC2)c1` [Example D-101, (S)-3-(4″-Fluoro-[1,1′,2′,1″]terphenyl-2″-ylmethoxy)-pyrrolidine], for which the Ki in assay [1] came to 3780 nM; in assay [2], 962 nM.
The matching figures for `CS(=O)(=O)c1ccc(-c2ccc(F)cc2CO[C@H]2CCNC2)cc1` [Example D-102, (S)-3-(4-Fluoro-4′-methanesulfonyl-biphenyl-2-methoxy)-pyrrolidine]: ≥ 10000 nM and ≥ 10000 nM.
For the compound `Oc1ccccc1-c1ccc(F)cc1CO[C@H]1CCNC1` [Example D-103, (S)-4′-Fluoro-2′-(pyrrolidin-3-yloxymethyl)-biphenyl-2-ol], the Ki in assay [1] is 1090 nM; in assay [2], 650 nM.
